In US20240158393A1, “PYRIDONE COMPOUNDS AND METHODS OF USE” (Exelixis, Inc., priority 2021, published 2024):
pIC50: −log10 of the molar value. Structures can show the parent of a compound that is named as a salt.

target: T1, Human Axl (Homo sapiens, UniProt P30530); test: Human AXL kinase assay (33P radiometric / HTRF KinEase); format: biochemical; settings: protocols of Examples A-1 and/or A-2
T1 construct: Human AXL (residues 464-885)
T1 sequence (P30530 1-894 Q764R): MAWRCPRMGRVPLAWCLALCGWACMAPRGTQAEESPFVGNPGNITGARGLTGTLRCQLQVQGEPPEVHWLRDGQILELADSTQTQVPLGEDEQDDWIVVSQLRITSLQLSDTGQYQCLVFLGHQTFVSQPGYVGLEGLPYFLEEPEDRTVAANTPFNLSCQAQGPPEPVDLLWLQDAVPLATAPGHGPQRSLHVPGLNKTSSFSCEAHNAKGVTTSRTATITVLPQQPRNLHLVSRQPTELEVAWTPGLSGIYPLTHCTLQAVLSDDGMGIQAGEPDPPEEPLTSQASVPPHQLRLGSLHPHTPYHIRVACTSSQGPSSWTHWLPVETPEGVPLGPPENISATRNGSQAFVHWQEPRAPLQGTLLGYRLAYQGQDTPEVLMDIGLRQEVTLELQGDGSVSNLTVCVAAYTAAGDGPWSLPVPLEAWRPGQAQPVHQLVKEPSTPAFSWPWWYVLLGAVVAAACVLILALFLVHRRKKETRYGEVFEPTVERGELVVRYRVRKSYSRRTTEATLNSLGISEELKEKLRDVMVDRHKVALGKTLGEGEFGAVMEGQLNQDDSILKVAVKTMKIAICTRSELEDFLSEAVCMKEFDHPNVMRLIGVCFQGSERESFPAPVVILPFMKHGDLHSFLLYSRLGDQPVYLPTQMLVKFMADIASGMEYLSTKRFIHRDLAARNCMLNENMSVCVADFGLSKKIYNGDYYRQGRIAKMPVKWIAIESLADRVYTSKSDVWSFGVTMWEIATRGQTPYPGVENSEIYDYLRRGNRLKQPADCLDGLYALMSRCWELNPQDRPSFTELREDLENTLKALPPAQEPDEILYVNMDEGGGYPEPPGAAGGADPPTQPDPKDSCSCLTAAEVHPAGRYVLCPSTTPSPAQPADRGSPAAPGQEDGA
Protocol: Kinase activity and compound inhibition were investigated using the ^33P-Phosphoryl transfer radiometric kinase assay, performed using the KinaseProfiler™ service of Eurofins Pharma Discovery Services UK Limited. Dose-response experiments were performed using nine compound concentrations in a 96-well microtiter plate. For each assay, all compounds were prepared to a 50× final assay concentration (50 μM) in 100% DMSO, then diluted in a half-log series, with the final top concentration at 1 μM. This working stock of the compound was added to the assay well as the first component in the reaction, followed by the remaining components as detailed in the following assay protocols below. The positive control wells (100% kinase activity) contain all components of the reaction including 2% DMSO (control for solvent effects), except the compound of interest. Blank wells contain all components of the reaction, with the reference inhibitor, staurosporine. This reference compound was used to abolish kinase activity and generated the 0% kinase activity base-line. IC50 values were calculated by nonlinear regression analysis using the sigmoidal dose-response (variable slope) curve fit on XLFit version 5.3 (ID Business Solutions).
Kinase activity and compound inhibition were also investigated using the HTRF® KinEase assay (Cisbio Cat #62TKOPEB) per manufacturer's instructions. In short, compounds were delivered in 300 nL volumes at 10 different concentrations in DMSO (3% final) to empty 384-well assay plates (Corning cat #3824). A mixture of enzyme, 1 μM biotinylated peptide substrate, and buffer in 10 μL volume was added. The assay was started upon the addition of ATP (at Km). The 10 μL reaction was incubated at room temperature. The reaction was stopped upon the addition of detection buffer containing streptavidin-XL665 (5 μL) and TK antibody-Eu3+(5 μL). After a 60 min incubation at room temperature, the fluorescence at 665 nm and 620 nm was read on an Envision microplate reader (Perkin Elmer).
Kinase activity normalized to DMSO (100% activity) and reference compound at 1 μM and (0% activity) was calculated using the fluorescence ratio […]. IC50 values were calculated by nonlinear regression analysis using a 4-parameter logistic curve fit in ActivityBase XE (IDBS).
Example A-1: Human Axl (residues H473-A894 with Q764R, 161 nM) was incubated with 8 mM MOPS pH 7.0, 0.2 mM EDTA, 250 μM KKSRGDYMTMQIG (SEQ ID NO:1), 10 mM magnesium acetate and 10 μM [γ-^33P-ATP]. The reaction was initiated by the addition of the Mg/ATP mix. After incubation for 40 minutes at room temperature, the reaction was stopped by the addition of phosphoric acid to a concentration of 0.5%. A reaction aliquot of 10 μL was then spotted onto a P30 filtermat and washed four times for 4 minutes in 0.425% phosphoric acid and once in methanol prior to drying and scintillation counting. Incorporated ^33P was measured using the Wallac Microbeta scintillation counter (Perkin Elmer).
Example A-2: Human AXL (residues 464-885; CarnaBio, 1 ng/well) was also incubated with enzymatic buffer (Cisbio) supplemented with 5 mM MgCl2, 1 mM DTT, and Supplemental Enzymatic Buffer (SEB; Cisbio). The mixture was added to the pre-plated compounds. The reaction was initiated upon addition of ATP at Km (1.0 μM). The reaction was incubated at room temperature for 50 min and stopped upon the addition of SA-XL665 and TK-antibody both diluted in EDTA-containing kinase detection buffer (Cisbio). The kinase activity was calculated as stated above and the IC50 values were reported.

pIC50, ≥ 7.00:
COc1cc2nccc(Oc3ccc(NC(=O)c4cn(C)c(C)c(C5=CCCC5)c4=O)cc3F)c2nc1OC [Compound 1, 5-(Cyclopenten-1-yl)-N-[4-[(6,7-dimethoxy-1,5-naphthyridin-4-yl)oxy]-3-fluorophenyl]-1,6-dimethyl-4-oxopyridine-3-carboxamide]
COc1cc2nccc(Oc3ccc(NC(=O)c4c(C)nc(C)c(C5=CCCC5)c4O)cc3F)c2nc1OC [Compound 1-2, 5-(Cyclopenten-1-yl)-N-[4-[(6,7-dimethoxy-1,5-naphthyridin-4-yl)oxy]-3-fluorophenyl]-4-hydroxy-2,6-dimethylpyridine-3-carboxamide hydrochloride]
COc1cc2nccc(Oc3ccc(NC(=O)c4cnc(C)c(C5=CCOCC5)c4O)cc3F)c2nc1OC [Compound 1-3, 5-(3,6-Dihydro-2H-pyran-4-yl)-N-[4-[(6,7-dimethoxy-1,5-naphthyridin-4-yl)oxy]-3-fluorophenyl]-4-hydroxy-6-methylpyridine-3-carboxamide]
COc1cnc2c(Oc3ccc(NC(=O)c4cnc(C)c(C5=CCOCC5)c4O)cc3F)ccnc2c1 [Compound 1-4, 5-(3,6-Dihydro-2H-pyran-4-yl)-N-[3-fluoro-4-[(7-methoxy-1,5-naphthyridin-4-yl)oxy]phenyl]-4-hydroxy-6-methylpyridine-3-carboxamide]
COc1ccc2nccc(Oc3ccc(NC(=O)c4cnc(C)c(C5=CCOCC5)c4O)cc3F)c2n1 [Compound 1-5, 5-(3,6-Dihydro-2H-pyran-4-yl)-N-[3-fluoro-4-[(6-methoxy-1,5-naphthyridin-4-yl)oxy]phenyl]-4-hydroxy-6-methylpyridine-3-carboxamide]
COc1ccc2nccc(Oc3ccc(NC(=O)c4cnc(C)c(C5=CCCCC5)c4O)cc3F)c2n1 [Compound 1-6, 5-(Cyclohexen-1-yl)-N-[3-fluoro-4-[(6-methoxy-1,5-naphthyridin-4-yl)oxy]phenyl]-4-hydroxy-6-methylpyridine-3-carboxamide]
COc1ccc2nccc(Oc3ccc(NC(=O)c4cnc(C)c(C5=CCCC5)c4O)cc3F)c2n1 [Compound 1-7, 5-(Cyclopenten-1-yl)-N-[3-fluoro-4-[(6-methoxy-1,5-naphthyridin-4-yl)oxy]phenyl]-4-hydroxy-6-methylpyridine-3-carboxamide]
COc1cnc2c(Oc3ccc(NC(=O)c4cnc(C)c(C5=CCCC5)c4O)cc3F)ccnc2c1 [Compound 1-9, 5-(Cyclopenten-1-yl)-N-[3-fluoro-4-[(7-methoxy-1,5-naphthyridin-4-yl)oxy]phenyl]-4-hydroxy-6-methylpyridine-3-carboxamide]
COc1cc2nccc(Oc3ccc(NC(=O)c4cn(C)c(C)c(C5CCCC5)c4=O)cc3F)c2nc1OC [Compound 2, 5-Cyclopentyl-N-[4-[(6,7-dimethoxy-1,5-naphthyridin-4-yl)oxy]-3-fluorophenyl]-1,6-dimethyl-4-oxopyridine-3-carboxamide]
COc1cc2nccc(Oc3ccc(NC(=O)c4c(C)nc(C)c(C5=CCCCC5)c4O)cc3F)c2nc1OC [Compound 2-3, 5-(Cyclohexen-1-yl)-N-[4-[(6,7-dimethoxy-1,5-naphthyridin-4-yl)oxy]-3-fluorophenyl]-4-hydroxy-2,6-dimethylpyridine-3-carboxamide]
C=C(C)c1c(C)nc(C)c(C(=O)Nc2cc(F)c(Oc3ccnc4cc(OC)c(OC)nc34)cc2F)c1O [Compound 6, N-[4-[(6,7-Dimethoxy-1,5-naphthyridin-4-yl)oxy]-2,5-difluorophenyl]-4-hydroxy-2,6-dimethyl-5-prop-1-en-2-ylpyridine-3-carboxamide]
COc1cnc2c(Oc3ccc(NC(=O)c4cnc(C)c(C5=CCOCC5)c4O)cc3)ccnc2c1 [Compound 7, 5-(3,6-Dihydro-2H-pyran-4-yl)-4-hydroxy-N-[4-[(7-methoxy-1,5-naphthyridin-4-yl)oxy]phenyl]-6-methylpyridine-3-carboxamide]
COc1cc2nccc(Oc3ccc(NC(=O)c4cn(CCF)c(C)c(C5=CCCCC5)c4=O)cc3F)c2nc1OC [Compound 8, 5-(Cyclohexen-1-yl)-N-[4-[(6,7-dimethoxy-1,5-naphthyridin-4-yl)oxy]-3-fluorophenyl]-1-(2-fluoroethyl)-6-methyl-4-oxopyridine-3-carboxamide]
COc1cc2nccc(Oc3ccc(NC(=O)c4c(C)nc(C)c(C(C)C)c4O)cc3)c2nc1OC [Compound 9, N-[4-[(6,7-Dimethoxy-1,5-naphthyridin-4-yl)oxy]phenyl]-4-hydroxy-2,6-dimethyl-5-propan-2-ylpyridine-3-carboxamide]
COc1cc2nccc(Oc3cc(F)c(NC(=O)c4c(C)nc(C)c(C(C)C)c4O)cc3F)c2nc1OC [Compound 10, N-[4-[(6,7-Dimethoxy-1,5-naphthyridin-4-yl)oxy]-2,5-difluorophenyl]-4-hydroxy-2,6-dimethyl-5-propan-2-ylpyridine-3-carboxamide]
COc1cc2nccc(Oc3ccc(NC(=O)c4cn(CCF)c(C)c(C5=CCCC5)c4=O)cc3F)c2nc1OC [Compound 11, 5-(Cyclopenten-1-yl)-N-[4-[(6,7-dimethoxy-1,5-naphthyridin-4-yl)oxy]-3-fluorophenyl]-1-(2-fluoroethyl)-6-methyl-4-oxopyridine-3-carboxamide]
COc1cnc2c(Oc3ccc(NC(=O)c4cn(C)c(C)c(C5=CCOCC5)c4=O)cc3F)ccnc2c1 [Compound 12, 5-(3,6-Dihydro-2H-pyran-4-yl)-N-[3-fluoro-4-[(7-methoxy-1,5-naphthyridin-4-yl)oxy]phenyl]-1,6-dimethyl-4-oxopyridine-3-carboxamide]
COc1cc2nccc(Oc3ccc(NC(=O)c4cn(CCF)c(C)c(C5CCCC5)c4=O)cc3F)c2nc1OC [Compound 13, 5-Cyclopentyl-N-[4-[(6,7-dimethoxy-1,5-naphthyridin-4-yl)oxy]-3-fluorophenyl]-1-(2-fluoroethyl)-6-methyl-4-oxopyridine-3-carboxamide]
COc1cc2nccc(Oc3ccc(NC(=O)c4c(C)cc(C)n(C5=CCCC5)c4=O)cc3F)c2nc1OC [Compound 14, 1-(Cyclopenten-1-yl)-N-[4-[(6,7-dimethoxy-1,5-naphthyridin-4-yl)oxy]-3-fluorophenyl]-4,6-dimethyl-2-oxopyridine-3-carboxamide]
